Reference: US20250361230A1, “LATS Inhibitors and Uses Thereof” (The USA, as Represented by the Secretary, Dept. of Heath …, priority 2022, published 2025)

Biological target: T1, LATS1 Kinase-NanoLuc fusion in HEK-293 cells (Homo sapiens, UniProt O95835)
T1 construct: host or cells: HEK-293
T1 sequence (O95835 1-1130): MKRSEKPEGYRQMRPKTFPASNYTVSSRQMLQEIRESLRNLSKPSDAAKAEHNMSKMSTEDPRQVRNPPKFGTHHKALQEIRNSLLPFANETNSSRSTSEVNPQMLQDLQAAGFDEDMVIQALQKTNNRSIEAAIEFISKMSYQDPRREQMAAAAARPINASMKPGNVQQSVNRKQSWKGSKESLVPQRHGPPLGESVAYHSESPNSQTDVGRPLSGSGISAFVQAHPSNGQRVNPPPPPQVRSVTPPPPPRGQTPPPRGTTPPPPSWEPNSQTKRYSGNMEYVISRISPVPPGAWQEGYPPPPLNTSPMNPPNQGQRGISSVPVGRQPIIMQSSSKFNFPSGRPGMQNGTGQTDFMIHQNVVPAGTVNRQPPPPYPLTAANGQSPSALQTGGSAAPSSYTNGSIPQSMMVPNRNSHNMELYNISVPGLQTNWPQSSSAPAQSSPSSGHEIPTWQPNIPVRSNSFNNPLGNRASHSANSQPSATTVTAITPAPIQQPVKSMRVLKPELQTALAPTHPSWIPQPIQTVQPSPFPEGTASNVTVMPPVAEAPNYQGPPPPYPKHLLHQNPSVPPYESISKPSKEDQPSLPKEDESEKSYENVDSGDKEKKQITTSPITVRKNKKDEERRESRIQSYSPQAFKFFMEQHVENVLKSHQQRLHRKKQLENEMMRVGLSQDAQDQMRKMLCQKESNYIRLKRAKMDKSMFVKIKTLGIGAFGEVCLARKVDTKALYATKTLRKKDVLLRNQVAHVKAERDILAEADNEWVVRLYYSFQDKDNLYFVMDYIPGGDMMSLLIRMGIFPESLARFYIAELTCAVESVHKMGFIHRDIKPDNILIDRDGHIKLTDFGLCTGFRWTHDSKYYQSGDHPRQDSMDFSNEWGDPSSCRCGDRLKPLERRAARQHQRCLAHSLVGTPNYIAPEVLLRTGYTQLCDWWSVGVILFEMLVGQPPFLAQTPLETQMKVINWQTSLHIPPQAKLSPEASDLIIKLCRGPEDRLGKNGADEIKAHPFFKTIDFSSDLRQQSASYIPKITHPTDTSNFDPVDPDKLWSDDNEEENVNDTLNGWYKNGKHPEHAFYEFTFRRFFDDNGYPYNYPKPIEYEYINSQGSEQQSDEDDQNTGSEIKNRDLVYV
Test: NanoBRET target engagement assay in transfected HEK-293 cells, LATS1
Format: cell-based
Settings: Table 28, NanoBRET, HEK-293 cells; read-out: LATS1 (Cellular) IC50
Text: The NanoBRET™ assay measures kinase engagement in real time in the context of the intact cell. The assay uses a Kinase-NanoLuc® fusion vector expressing a kinase protein to which a luciferase tag has been added, a cell-permeant fluorescent NanoBRET™ tracer, a NanoLuc® substrate, and an extracellular NanoLuc® inhibitor. Upon expression of the luciferase-tagged kinase, cells will produce a strong BRET signal only in the presence of the NanoBRET™ tracer. The extracellular NanoLuc® inhibitor ensures that the BRET signal observed emanates only from live cells. Because the BRET signal has tight distance constraints, addition of the test compound will decrease the BRET signal if the compound competes with the NanoBRET™ tracer for binding to the kinase domain. Under the appropriate tracer conditions established by the manufacturer, quantitative intracellular affinity and relative potency can then be determined using Mass Action model equations.
HEK-293 cells were purchased from ATCC. FuGENEHD Transfection Reagent, Kinase-NanoLuc® fusion plasmids, Transfection Carrier DNA, NanoBRET™ Tracers and dilution buffer, NanoBRET™ Nano-Glo Substrate, Extracellular NanoLuc® Inhibitor were obtained from Promega.
Assays were conducted following Promega assay protocol with some modifications as described further below. HEK-293 Cells were transiently transfected with Kinase-NanoLuc® Fusion Vector DNA by FuGENE HD Transfection Reagent. Test compounds were delivered into 384 well assay plate by Echo 550 (Labcyte Inc, Sunnyvale, CA). Transfected cells were harvested and mixed with NanoBRET™ Tracer Reagent and dispensed into 384 well plates and incubated at 37° C. in 5% CO2 cell culture incubator for 1 hour. The NanoBRET™ Nano-Glo Substrate plus Extracellular NanoLuc® Inhibitor Solution were added into the wells of the assay plate and incubated for 2-3 minutes at room temperature. The donor emission wavelength (460 nm) and acceptor emission wavelength (600 nm) were measured in the EnVision plate reader. The BRET Ratios were calculated. BRET Ratio=[(Acceptor sample÷Donor sample)−(Acceptor no-tracer control÷Donor no-tracer control)]. The IC50 values of compounds were calculated with Prism GraphPad program.
• 1. Transient Transfection of HEK-293 Cells NanoLuc® Fusion Vector DNA • 1). Cultivate HEK-293 cells (70-80% confluence) appropriately prior to assay. Trypsinize and collect HEK-293 cells. • 2). Prepare lipid: DNA complexes as follows: • a. Prepare a […] solution of DNA in Opti-MEM™ without serum that consists of the following ratios of carrier DNA and DNA encoding NanoLuc® fusion. 9.0 µg/mL of Transfection Carrier DNA, […] of NanoLuc® fusion vector DNA and 1 mL of Opti-MEM™ without phenol red. Mix thoroughly. • b. Add 30 μl of FuGENE HD Transfection Reagent into each milliliter of DNA mixture to form lipid: DNA complex. • c. Mix by inversion 10 times. • d. Incubate at ambient temperature for 20 minutes to allow complexes to form. • 3). In a sterile, conical tube, mix 1 part of lipid: DNA complex with 20 parts of HEK-293 cells in suspension. Mix gently by inversion 5 times. • 4). Dispense cells+lipid: DNA complex into a sterile tissue culture dish and incubate for 22-24 hours. • 2. Addition of Test Compounds (dry plate shooting): Each test compound is delivered from the compound source plate to the wells of 384-well white NBS plate by Echo 550. • 3. Preparation of Cells with NanoBRET™ Tracer Reagent • 1). Remove medium from dish with transfected HEK-293 cells via aspiration, trypsinize and allow cells to dissociate from the dish. • 2). Neutralize trypsin using medium containing serum and centrifuge at 200× g for 5 minutes to pellet the cells. Adjust the cell density to 2×10^5 cells/mL in Opti-MEM™ without phenol red. • 3). Prepare Complete 20× NanoBRET™ Tracer Reagent with Tracer Dilution Buffer. • 4). Dispense one part of Complete 20× NanoBRET™ Tracer Reagent to 20 parts of cells in the tube. Mix gently by inversion 10 times. • 5). […]

Compound | IC50 [nM]
C[C@@H]1CNC[C@H](C)[C@@]1(O)c1ccc(-c2ccnc3[nH]cc(F)c23)cc1Cl [Compound 1, (3S,4S,5R)-4-(2-chloro-4-(3-fluoro-1H-pyrrolo[2,3-b]pyridin-4-yl)phenyl)-3,5-dimethylpiperidin-4-ol] | 203
C[C@@H]1CNC[C@H](C)[C@@]1(O)c1ccc(-c2ccnc3[nH]cc(F)c23)cc1 [Compound 2, (3R,4s,5S)-4-(4-(3-fluoro-1H-pyrrolo[2,3-b]pyridin-4-yl)phenyl)-3,5-dimethylpiperidin-4-ol] | 550
C[C@@H]1CNC[C@H](C)[C@@]1(O)c1ccc(-c2ccnc3[nH]cc(F)c23)cc1F [Compound 7, (3S,4s,5R)-4-(2-fluoro-4-(3-fluoro-1H-pyrrolo[2,3-b]pyridin-4-yl)phenyl)-3,5-dimethyl piperidin-4-ol] | 247
C[C@@H]1CNC[C@H](C)[C@@]1(O)c1ccc(-c2ccnc3[nH]cc(F)c23)nc1 [Compound 8, (3S,4s,5R)-4-(6-(3-fluoro-1H-pyrrolo[2,3-b]pyridin-4-yl)pyridin-3-yl)-3,5-dimethylpiperidin-4-ol] | 60
Cc1cc(-c2ccnc3[nH]cc(F)c23)ccc1[C@@]1(O)[C@H](C)CNC[C@@H]1C [Compound 9, (3S,4s,5R)-4-(4-(3-fluoro-1H-pyrrolo[2,3-b]pyridin-4-yl)-2-methylphenyl)-3,5-dimethylpiperidin-4-ol] | 44.6
C[C@@H]1CNC[C@H](C)[C@@]1(O)c1c(F)cc(-c2ccnc3[nH]cc(F)c23)cc1F [Compound 13] | 1450
C[C@@H]1CNC[C@H](C)[C@@]1(O)c1ccc(-c2ccnc3[nH]cc(F)c23)cc1OC(F)(F)F [Compound 14, (3S,4s,5R)-4-(4-(3-fluoro-1H-pyrrolo[2,3-b]pyridin-4-yl)-2-(trifluoromethoxy)phenyl)-3,5-dimethylpiperidin-4-ol] | 2130
C[C@@H]1CN(Cc2ccccn2)C[C@H](C)[C@@]1(O)c1c(F)cc(-c2ccnc3[nH]cc(F)c23)cc1F [Compound 17, (3S,4s,5R)-4-(2,6-difluoro-4-(3-fluoro-1H-pyrrolo[2,3-b]pyridin-4-yl)phenyl)-3,5-dimethyl-1-(pyridin-2-ylmethyl)piperidin-4-ol] | 409
C[C@@H]1CN(C)C[C@H](C)[C@@]1(O)c1cnc(-c2ccnc3[nH]cc(F)c23)cc1Cl [Compound 22, (3S,4s,5R)-4-(4-chloro-6-(3-fluoro-1H-pyrrolo[2,3-b]pyridin-4-yl)pyridin-3-yl)-1,3,5-trimethylpiperidin-4-ol] | 505
Cc1cc(-c2ccnc3[nH]cc(F)c23)ccc1[C@@]1(O)[C@H](C)CN(C2COC2)C[C@@H]1C [Compound 24, (3S,4s,5R)-4-(4-(3-fluoro-1H-pyrrolo[2,3-b]pyridin-4-yl)-2-methylphenyl)-3,5-dimethyl-1-(oxetan-3-yl)piperidin-4-ol] | 127
Cc1cc(-c2ccnc3[nH]cc(F)c23)ccc1[C@@]1(O)[C@H](C)CN(C(C)C)C[C@@H]1C [Compound 29, (3S,4s, 5R)-4-(4-(3-fluoro-1H-pyrrolo[2,3-b]pyridin-4-yl)-2-methylphenyl)-1-isopropyl-3,5-dimethylpiperidin-4-ol] | 86
Cc1cc(-c2ccnc3[nH]cc(F)c23)cc(F)c1C1(O)[C@H](C)CN(C2COC2)C[C@@H]1C (stereo partly drawn) [Compound 30, (3S,5R)-4-(2-fluoro-4-(3-fluoro-1H-pyrrolo[2,3-b]pyridin-4-yl)-6-methylphenyl)-3,5-dimethyl-1-(oxetan-3-yl)piperidin-4-ol] | 58.2
C[C@@H]1CN(C2CCS(=O)(=O)CC2)C[C@H](C)C1(O)c1c(F)cc(-c2ccnc3[nH]cc(F)c23)cc1F (stereo partly drawn) [Compound 31, 4-((3S,5R)-4-(2,6-difluoro-4-(3-fluoro-1H-pyrrolo[2,3-b]pyridin-4-yl)phenyl)-4-hydroxy-3,5-dimethylpiperidin-1-yl)tetrahydro-2H-thiopyran 1,1-dioxide] | 1190
